Reference: patent US9399648B2, “Isothiazolopyridinones useful for the treatment of (inter alia) cystic fibrosis” (Vertex Pharmaceuticals Incorporated, priority 2007, dated 2016)

Biological target: T1, ΔF508-CFTR (Homo sapiens, UniProt P13569, DEL508-508)
T1 construct: expressed in transfected cells; host or cells: Fisher rat […] (FRT) cells expressing ΔF508-CFTR (Ussing chamber); NIH3T3 cells stably expressing ΔF508-CFTR (whole-cell recording)
Assay: Assays for detecting and measuring ΔF508-CFTR potentiation properties of compounds (membrane potential optical / Ussing chamber / whole-cell recording)
Type: cell-based
Settings: for Emax: relative efficacy, efficacy of putative ΔF508-CFTR potentiators compared to known potentiator genistein; for EC50: ΔF508-CFTR potentiation, the specific assay format behind Table 3 is not stated
From the text: Assays for Detecting and Measuring ΔF508-CFTR Potentiation Properties of Compounds
Membrane Potential Optical Methods for Assaying ΔF508-CFTR Modulation Properties of Compounds
The optical membrane potential assay utilized voltage-sensitive FRET sensors described by Gonzalez and Tsien (See Gonzalez, J. E. and R. Y. Tsien (1995) “Voltage sensing by fluorescence resonance energy transfer in single cells” Biophys J 69(4): 1272-80, and Gonzalez, J. E. and R. Y. Tsien (1997) “Improved indicators of cell membrane potential that use fluorescence resonance energy transfer” Chem Biol 4(4): 269-77) in combination with instrumentation for measuring fluorescence changes such as the Voltage/Ion Probe Reader (VIPR) (See Gonzalez, J. E., K. Oades, et al. (1999) “Cell-based assays and instrumentation for screening ion-channel targets” Drug Discov Today 4(9): 431-439).
These voltage sensitive assays are based on the change in fluorescence resonant energy transfer (FRET) between the membrane-soluble, voltage-sensitive dye, DiSBAC2(3), and a fluorescent phospholipid, CC2-DMPE, which is attached to the outer leaflet of the plasma membrane and acts as a FRET donor. Changes in membrane potential (Vm) cause the negatively charged DiSBAC2(3) to redistribute across the plasma membrane and the amount of energy transfer from CC2-DMPE changes accordingly. The changes in fluorescence emission were monitored using VIPR™ II, which is an integrated liquid handler and fluorescent detector designed to conduct cell-based screens in 96- or 384-well microtiter plates.
Identification of Potentiator Compounds
Typical protocol utilized a basolateral to apical membrane Cl^− concentration gradient. To set up this gradient, normal ringers was used on the basolateral membrane and was permeabilized with nystatin (360 μg/m), whereas apical NaCl was replaced by equimolar sodium gluconate (titrated to pH 7.4 with NaOH) to give a large Cl^− concentration gradient across the epithelium. All experiments were performed 30 min after nystatin permeabilization. Forskolin (10 μM) and all test compounds were added to both sides of the cell culture inserts. The efficacy of the putative ΔF508-CFTR potentiators was compared to that of the known potentiator, genistein.
Solutions • Basolateral solution (in mM): NaCl (135), CaCl2 (1.2), MgCl2 (1.2), K2HPO4 (2.4), KHPO4 (0.6), N-2-hydroxyethylpiperazine-N′-2-ethanesulfonic acid (HEPES) (10), and dextrose (10). The solution was titrated to pH 7.4 with NaOH. • Apical solution (in mM): Same as basolateral solution with NaCl replaced with Na Gluconate (135).
Fisher rat […] (FRT) cells expressing ΔF508-CFTR (FRTΔ^F508-CFTR) were used for Ussing chamber experiments for the putative ΔF508-CFTR modulators identified from our optical assays. The cells were cultured on Costar Snapwell cell culture inserts and cultured for five days at 37° C. and 5% CO2 in Coon's modified Ham's F-12 medium supplemented with 5% fetal calf serum, 100 U/ml penicillin, and 100 μg/m streptomycin. Prior to use for characterizing the potentiator activity of compounds, the cells were incubated at 27° C. for 16-48 hrs to correct for the ΔF508-CFTR. To determine the activity of corrections compounds, the cells were incubated at 27° C. or 37° C. with and without the compounds for 24 hours.
The macroscopic ΔF508-CFTR current (IΔF508) in temperature- and test compound-corrected NIH3T3 cells stably expressing ΔF508-CFTR were monitored using the perforated-patch, whole-cell recording. Briefly, voltage-clamp recordings of IΔF508 were performed at room temperature using an Axopatch 200B patch-clamp amplifier (Axon Instruments Inc., Foster City, Calif.). All recordings were acquired at a sampling frequency of 10 kHz and low-pass filtered at 1 kHz. […] Under these recording conditions, the calculated reversal potential for Cl^− (ECl) at room temperature was −28 mV. […]

T1 sequence (P13569 with tags, fused parts or gaps DEL508-508): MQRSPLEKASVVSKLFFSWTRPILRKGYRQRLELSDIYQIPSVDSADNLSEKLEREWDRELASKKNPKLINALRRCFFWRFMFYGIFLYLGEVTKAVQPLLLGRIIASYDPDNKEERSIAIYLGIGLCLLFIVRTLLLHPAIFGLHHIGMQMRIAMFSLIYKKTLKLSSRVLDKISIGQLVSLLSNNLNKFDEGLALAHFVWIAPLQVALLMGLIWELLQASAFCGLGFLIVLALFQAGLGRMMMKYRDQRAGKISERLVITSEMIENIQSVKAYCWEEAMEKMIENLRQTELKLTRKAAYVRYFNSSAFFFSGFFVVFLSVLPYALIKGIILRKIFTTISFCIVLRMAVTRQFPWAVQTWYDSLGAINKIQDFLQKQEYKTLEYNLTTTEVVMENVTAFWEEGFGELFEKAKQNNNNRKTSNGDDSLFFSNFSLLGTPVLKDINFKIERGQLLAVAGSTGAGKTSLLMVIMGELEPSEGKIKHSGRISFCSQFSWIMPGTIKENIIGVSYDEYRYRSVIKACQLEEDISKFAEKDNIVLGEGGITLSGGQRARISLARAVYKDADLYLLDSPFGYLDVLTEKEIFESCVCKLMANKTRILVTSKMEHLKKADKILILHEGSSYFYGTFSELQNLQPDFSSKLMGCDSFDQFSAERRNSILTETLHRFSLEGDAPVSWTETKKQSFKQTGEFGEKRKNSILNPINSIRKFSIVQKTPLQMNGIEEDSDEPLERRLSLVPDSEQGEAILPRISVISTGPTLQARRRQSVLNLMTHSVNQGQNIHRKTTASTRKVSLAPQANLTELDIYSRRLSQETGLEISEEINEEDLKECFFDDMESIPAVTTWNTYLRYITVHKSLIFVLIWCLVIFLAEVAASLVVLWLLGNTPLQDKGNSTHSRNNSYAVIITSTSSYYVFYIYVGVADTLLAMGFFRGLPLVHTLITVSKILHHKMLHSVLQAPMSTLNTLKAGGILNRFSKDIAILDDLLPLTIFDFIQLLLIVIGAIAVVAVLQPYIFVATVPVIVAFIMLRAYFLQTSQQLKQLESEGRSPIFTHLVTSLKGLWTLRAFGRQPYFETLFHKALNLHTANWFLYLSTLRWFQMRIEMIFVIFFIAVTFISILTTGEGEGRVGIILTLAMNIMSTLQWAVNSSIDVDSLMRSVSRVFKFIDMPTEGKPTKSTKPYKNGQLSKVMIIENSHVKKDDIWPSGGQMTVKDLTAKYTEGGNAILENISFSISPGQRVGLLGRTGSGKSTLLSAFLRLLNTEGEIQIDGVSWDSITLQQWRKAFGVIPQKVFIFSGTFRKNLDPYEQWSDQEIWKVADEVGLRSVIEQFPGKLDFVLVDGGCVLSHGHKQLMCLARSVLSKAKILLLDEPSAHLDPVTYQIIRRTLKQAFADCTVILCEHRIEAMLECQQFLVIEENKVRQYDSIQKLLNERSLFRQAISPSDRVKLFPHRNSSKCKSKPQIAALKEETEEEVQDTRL

Structure (SMILES)	Emax	EC50
Cc1nsc2[nH]cc(C(=O)Nc3cc(O)c(C4CCCC4)cc3C(F)(F)F)c(=O)c12 [Compound 12]	25 to 100%	< 10 µM
Cc1nsc2[nH]cc(C(=O)Nc3ccc(N4CCC[C@@H]4C)cc3C(F)(F)F)c(=O)c12 [Compound 4]	25 to 100%	< 10 µM
Cc1nsc2[nH]cc(C(=O)Nc3ccc(N4CC[C@H](F)C4)cc3C(F)(F)F)c(=O)c12 [Compound 10]	25 to 100%	< 10 µM
Cc1nsc2[nH]cc(C(=O)Nc3ccc4c(C(C)(C)C)c[nH]c4c3)c(=O)c12 [Compound 2, N-(3-tert-butyl-1H-indol-6-yl)-3-methyl-4-oxo-4,7-dihydroisothiazolo[5,4-b]-pyridine-5-carboxamide]	25 to 100%	< 10 µM
Cc1nsc2[nH]cc(C(=O)Nc3cc4[nH]ccc4cc3C(F)(F)F)c(=O)c12 [Compound 9]	25 to 100%	< 10 µM
Cc1nsc2[nH]cc(C(=O)Nc3ccc(N4CCC(C)(C)C4)cc3C(F)(F)F)c(=O)c12 [Compound 8]	25 to 100%	< 10 µM
Cc1nsc2[nH]cc(C(=O)Nc3ccc(N4[C@H](C)CC[C@H]4C)cc3C(F)(F)F)c(=O)c12 [Compound 11]	25 to 100%	< 10 µM

Second part, the compound after the results:

Emax	EC50	Structure (SMILES)
25 to 100%	< 10 µM	Cc1nsc2[nH]cc(C(=O)Nc3ccc(C(F)(F)F)c(O)c3)c(=O)c12 [Compound 6]
25 to 100%	< 10 µM	Cc1nsc2[nH]cc(C(=O)Nc3ccc(N4CCC(F)(F)C4)cc3C(F)(F)F)c(=O)c12 [Compound 7]
25 to 100%	< 10 µM	Cc1nsc2[nH]cc(C(=O)Nc3cc(O)c(C4CCCC4)cc3C#N)c(=O)c12 [Compound 15]
25 to 100%	< 10 µM	Cc1nsc2[nH]cc(C(=O)Nc3cc(O)c(C4(C)CCCCC4)cc3F)c(=O)c12 [Compound 5]
25 to 100%	< 10 µM	Cc1cc(C2CCCC2)c(O)cc1NC(=O)c1c[nH]c2snc(C)c2c1=O [Compound 16]
25 to 100%	< 10 µM	Cc1nsc2[nH]cc(C(=O)Nc3ccc4c(C(F)(F)F)c[nH]c4c3)c(=O)c12 [Compound 1]
25 to 100%	< 10 µM	Cc1nsc2[nH]cc(C(=O)Nc3cc4[nH]ccc4cc3C(C)(C)C)c(=O)c12 [Compound 14]
25 to 100%	< 10 µM	Cc1nsc2[nH]cc(C(=O)Nc3ccc(N4CC[C@@H](F)C4)cc3C(F)(F)F)c(=O)c12 [Compound 13]
25 to 100%	< 10 µM	Cc1nsc2[nH]cc(C(=O)Nc3cc(O)c(C(C)(C)C)cc3C(C)(C)C)c(=O)c12 [Compound 3]
